In PubChem BioAssay (NCI):
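Step 1: Grow cells in 96-well plates. Step 2: Expose to compound for 48 hours at 5 concentrations. Step 3: Interpolate endpoints linearly; if unreached, use highest concentration. TGI denotes the concentration required for complete inhibition of growth.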

Tests used:
Assay in all cases: growth of human tumour cells (NCI), 48 h
[1] = system: SK-OV-3 ovarian
[2] = system: OVCAR-4 ovarian
[3] = system: SNB-75 CNS
[4] = system: NCI-H23 lung
[5] = system: MDA-MB-435
[6] = system: OVCAR-8 ovarian
[7] = system: DU-145 prostate
[8] = system: SW-620 colon
[9] = system: KM12 colon
[10] = system: EKVX NSCLC
[11] = system: SNB-19 CNS
[12] = system: NCI/ADR-RES ovarian
[13] = system: NCI-H460 lung
[14] = system: SF-268 CNS
[15] = system: CAKI-1 renal
[16] = system: SR leukemia
[17] = system: TK-10 renal
[18] = system: 786-0 renal
[19] = system: T-47D breast
[20] = system: U251 CNS
[21] = system: MOLT-4 leukemia
[22] = system: NCI-H226 lung
[23] = system: HOP-62 NSCLC
[24] = system: SK-MEL-28 melanoma
[25] = system: SF-539 CNS
[26] = system: HS 578T breast
[27] = system: UACC-257 melanoma
[28] = system: PC-3 prostate
[29] = system: IGROV1 ovarian
[30] = system: NCI-H522 lung
[31] = system: LOX IMVI melanoma
[32] = system: HCT-116 colon
[33] = system: MALME-3M melanoma
[34] = system: K-562 leukemia
[35] = system: RXF 393 renal
[36] = system: UO-31 renal
[37] = system: HL-60(TB) leukemia
[38] = system: SN12C renal
[39] = system: MCF7 breast
[40] = system: SK-MEL-2 melanoma
[41] = system: BT-549 breast
[42] = system: UACC-62 melanoma
[43] = system: SF-295 CNS
[44] = system: OVCAR-5 ovarian
[45] = system: HT29 colon
[46] = system: HCT-15 colon
[47] = system: COLO 205 colon
[48] = system: ACHN renal
[49] = system: SK-MEL-5 melanoma
[50] = system: HOP-92 NSCLC
[51] = system: M14 melanoma
[52] = system: OVCAR-3 ovarian
[53] = system: A549 NSCLC
[54] = system: MDA-MB-231 breast
[55] = system: CCRF-CEM leukemia

COc1cc2c(cc1OCCCCCOc1cc3c(cc1OC)C(=O)N1CCC[C@H]1CN3)N=C[C@@H]1CCCN1C2=O
TGI [1]: > 100 µM
TGI [2]: > 100 µM
TGI [3]: 95.2 µM
TGI [4]: 20.5 µM
TGI [5]: 20.1 µM
TGI [6]: 24.2 µM
TGI [7]: > 100 µM
TGI [8]: 23.9 µM
TGI [9]: 15.2 µM
TGI [10]: > 100 µM
TGI [11]: > 100 µM
TGI [12]: > 100 µM
TGI [13]: > 100 µM
TGI [14]: 61.8 µM
TGI [15]: 44.1 µM
TGI [16]: 1.11 µM
TGI [17]: 63.3 µM
TGI [18]: 63.2 µM
TGI [19]: > 100 µM
TGI [20]: 5.24 µM
TGI [21]: 9.24 µM
TGI [22]: 29.1 µM
TGI [23]: 31.5 µM
TGI [24]: 28.2 µM
TGI [25]: 20.4 µM
TGI [26]: 50.4 µM
TGI [27]: 31.9 µM
TGI [28]: 61.5 µM
TGI [29]: 21.3 µM
TGI [30]: 3.65 µM
TGI [31]: 3.06 µM
TGI [32]: 24.1 µM
TGI [33]: 21.6 µM
TGI [34]: 17.6 µM
TGI [35]: 72 µM
TGI [36]: 30.9 µM
TGI [37]: 30 µM
TGI [38]: 18.7 µM
TGI [39]: > 100 µM
TGI [40]: 11.5 µM
TGI [41]: 34.9 µM
TGI [42]: 6.72 µM
TGI [43]: 34 µM
TGI [44]: 69.4 µM
TGI [45]: 37.3 µM
TGI [46]: 43.8 µM
TGI [47]: > 100 µM
TGI [48]: 27.6 µM
TGI [49]: 12.2 µM
TGI [50]: 75.1 µM
TGI [51]: 10.8 µM
TGI [52]: 44.7 µM
TGI [53]: 27 µM
TGI [54]: 9.48 µM
TGI [55]: 0.592 µM
